The text below walks through data of PMC9229843, “Cancer-Related Somatic Mutations in Transmembrane Helices Alter Adenosine A1 Receptor Pharmacology” (Molecules, 2022).

Residue numbers refer to the chain shown, from its start. “Also recorded” adds a separate entry of the source.

One test has as its target T1, hA1AR S267I^7.32 (Homo sapiens, UniProt P30542, S267I).
T1 construct: expressed in transfected cells; host or cells: S. cerevisiae MMY24
T1 sequence (P30542 1-326 S267I): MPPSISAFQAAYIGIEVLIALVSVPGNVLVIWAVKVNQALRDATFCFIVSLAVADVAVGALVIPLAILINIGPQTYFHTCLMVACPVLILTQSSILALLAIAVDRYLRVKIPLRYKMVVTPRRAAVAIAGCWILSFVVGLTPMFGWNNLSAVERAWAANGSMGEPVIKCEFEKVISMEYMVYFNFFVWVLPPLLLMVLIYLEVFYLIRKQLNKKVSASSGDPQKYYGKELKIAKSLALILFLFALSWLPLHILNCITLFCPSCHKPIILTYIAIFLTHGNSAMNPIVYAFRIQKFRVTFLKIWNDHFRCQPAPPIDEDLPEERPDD
Kind of test: yeast liquid growth assay. It is filed as cell-based. The conditions noted are these: result in words. As for the experimental part:
(§1) The plasmids, pDT-PGK_hA1AR, containing either wild type or mutated hA1AR were transformed into a MMY24 S. cerevisiae strain following the lithium acetate procedure.
(§2) In order to characterize the mutant hA1ARs, liquid growth assays in 96-well plates were performed to obtain concentration–growth curves as previously described. […] The overnight cultures were then diluted to 40,000 cells/mL (OD600 ≈ 0.02) in a selective medium without uracil, leucine, and histidine (YNB-ULH). For the determination of constitutive activity, 50 μL of yeast cells and 150 μL of YNB-ULH medium containing different concentrations of 3-AT and 0.8 IU/mL ADA were then added to each well. To obtain concentration–growth curves, 2 μL of various concentrations of ligands, 50 μL of yeast cells, and 150 μL of YNB-ULH medium containing 7 mM 3-AT and 0.8 IU/mL ADA were then added to each well. After incubation at 30 °C for 35 h in a Genios plate reader (TECAN, Zürich, Switzerland) with shaking for 1 min at 300 rpm every 10 min, the optical density was measured at a wavelength of 595 nm, which represented the level of yeast cell growth.
(§3) All experimental data were analyzed by GraphPad Prism 7.0 or 8.0 (GraphPad Software Inc., San Diego, CA, USA). Data from yeast liquid growth and [^35S]GTPγS binding assays were analyzed by non-linear regression using “log (agonist) vs. response (three parameters)” or “log (inhibitor) vs. response (three parameters)” to obtain potency (EC50), inhibitory potency (IC50), and efficacy (Emax or Imax) values. The radioligand displacement curves were obtained from a statistically preferred one-site or two-site binding model. pKi values were calculated from pIC50 values using the Cheng–Prusoff equation, where KD values were obtained from the homologous competition assays from this study and calculated by non-linear regression using “one site–homologous” [62].

A further test concerns the target T2, hA1AR A52V^2.47 (Homo sapiens, UniProt P30542, A52V).
T2 construct: expressed in transfected cells; host or cells: S. cerevisiae MMY24
T2 sequence (P30542 1-326 A52V): T1 sequence (P30542 1-326 S267I) with A52V, I267S
In words: yeast liquid growth assay. In kind it is cell-based. As for the experimental part: as §1, §2, §3

The next test has as its system A1AR P86F^3.31. Set-up: method as in PMID 9920910. The conditions noted are these: result in words; cited from earlier work.
The target of another test is T3, wild type hA1AR (Homo sapiens, UniProt P30542).
T3 sequence (P30542 1-326): T1 sequence (P30542 1-326 S267I) with I267S
Kind of test: [3H]DPCPX radioligand displacement assay, CHO membranes. In kind it is binding. The conditions noted are these: fraction of high-affinity state; two-site model. As for the experimental part:
Transient transfection of CHO cells with wild type or mutated hA1AR plasmid constructs was performed using a polyethylenimine (PEI) method. Cells were seeded in 10-cm culture dishes to achieve 50–60% confluency 24 h prior to transfection. On the day of transfection, cells were transfected with a PEI: DNA ratio of 3:1 and a plasmid DNA amount of 10 μg/dish. Moreover, 24 h post-transfection, the medium was refreshed, and 48 h after transfection, cells were collected and membranes were prepared as previously described. Membranes were aliquoted in 250 or 100 μL and stored at −80 °C. Membrane protein concentrations were determined using the BCA method.
The displacement assays were performed as described previously. […] After the addition of 25 µL per well of the Microscint scintillation cocktail (PerkinElmer, Groningen, The Netherlands), the filter-bound radioactivity was measured by scintillation spectrometry in a Microbeta2® 2450 microplate counter (PerkinElmer).
(§4) All experimental data were analyzed by GraphPad Prism 7.0 or 8.0 (GraphPad Software Inc., San Diego, CA, USA). Data from yeast liquid growth and [^35S]GTPγS binding assays were analyzed by non-linear regression using “log (agonist) vs. response (three parameters)” or “log (inhibitor) vs. response (three parameters)” to obtain potency (EC50), inhibitory potency (IC50), and efficacy (Emax or Imax) values. […]
For orientation: Displacement assays read how much labelled ligand stays bound in the presence of the test substance.

A further test deals with T4, hA1AR S246T^6.47 (Homo sapiens, UniProt P30542, S246T).
T4 sequence (P30542 1-326 S246T): T1 sequence (P30542 1-326 S267I) with S246T, I267S
The conditions noted are these: ratio over basal activity of wild type hA1AR; yeast; 7 mM 3-AT. The protocol: as §1
as §2, with “To obtain concentration–growth curves, 2 μL of various concentrations of ligands, 50 μL of yeast cells, and 150 μL of YNB-ULH medium containing 7 mM 3-AT and 0.8 IU/mL ADA were then added to each well.” left out
as §4

As to `OC[C@H]1O[C@@H](n2cnc3c(NC4CCCC4)ncnc32)[C@H](O)[C@@H]1O` [CPA, N^6-cyclopentyladenosine], the agonist-induced receptor activation result on hA1AR S267I^7.32 is “could not be activated; also recorded: complete loss of activation”. The “decrease in potency versus wild type hA1AR” value on hA1AR A52V^2.47 was “more than 400 fold”. The CPA binding result in the test with A1AR P86F^3.31 is listed as “abolished”. In addition, the “Fraction (High)” value at wild type hA1AR worked out at 0.15 ± 0.03. In addition, the Emax at hA1AR S246T^6.47 is reported as 4.81 ± 0.26.
